Data on eleven compounds can be found in US8697874B2, “Heterocyclic compound and use thereof” (Takeda Pharmaceutical Company Limited, priority 2008, dated 2014).

Broadly, the IC50 is the concentration needed to halve the response being measured. The low end stands for greater potency, the high end for weaker potency.

The test system of test [1] is MEK1/2 phosphorylation in human colorectal cancer cell HT-29. Description: Colorectal cancer cell HT-29 intracellular MEK phosphorylation inhibitory activity in vitro. Particulars: HT-29 cells; for inhibition at 0.5 µM: MEK1/2 protein phosphorylation, compound 0.5 μM, 2 hrs, read-out: inhibitory rate (%) at 0.5 μM; for IC50: 2 hrs treatment, phosphorylated MEK1/2 by Western blot. The test is classed as cell-based. The protocol:
Colorectal Cancer Cell HT-29 Intracellular MEK Phosphorylation Inhibitory Activity In Vitro
500 μL of a cell suspension of human colorectal cancer cell HT-29 (purchased from American Type Culture Collection (ATCC)) was plated in a 48-well plate (100,000 cells/well), and the cells were cultured overnight at 37° C. in the presence of 5% CO2, treated with a test compound (250 μL/well) diluted in 3-fold dilution series and cultured for 2 hrs. After 2 hrs, the culture medium containing the test compound was removed, and the cells were lysed with SDS sample buffer (100 μL/well) and heated at 95° C. for 5 min. Thereafter, the cells lysed with SDS sample buffer were applied to SDS-PAGE, and the protein was transferred onto Sequi-Blot™ PVDF Membrane (Bio-Rad) by the Western blot method. The PDVF membrane was blocked with a Block-Ace solution (Snow Brand Milk Products Co., Ltd) dissolved in phosphate buffered saline (MP Biochemicals) to 5% W/V, and reacted overnight with anti-phosphorylated MEK1/2 (Ser217/221) (Cell signaling) diluted 1000-fold with phosphate buffered saline containing 0.4% Block-Ace. The membrane was washed with phosphate buffered saline containing 0.1% Tween 20 (Wako Pure Chemical Industries, Ltd.), and reacted at room temperature for 1 hr with HRP labeled rabbit IgG polyclonal antibody (Cell signaling) diluted 1000-fold with phosphate buffered saline containing 0.4% Block-Ace. The membrane was washed in the same manner as above, chemical luminescence of a phosphorylated MEK1/2 protein labeled with the antibody, which was caused by ECL-plus Detection Reagent (Amersham bioscience), was detected by Luminescent Image Analyzer LAS-1000 (FUJIFILM Corporation). Taking the luminescence of the control group free of the test compound as 100%, the concentration (IC50 value) of the compound necessary for inhibiting the residual luminescence to 50% of the control group was calculated. The results are shown in Table 3-A. In addition, MEK1/2 protein phosphorylation inhibitory rate (%) of the test compound at compound concentration 0.5 μM was calculated by the following formula. The results are shown in Table 3-B. Inhibitory rate (%)=(1−(luminescence of test compound−blank)÷(luminescence of control group−blank))×100
(A western blot detects proteins with antibodies after separation by electrophoresis.)

Test [2] concerns the target T1, BRAF (V600E) kinase (Homo sapiens, UniProt P15056, V600E).
T1 construct: area encoding the BRAF kinase domain region, so that the protein contains an N-terminal Flag; made in house; host or cells: SF-21 insect cells infected with recombinant baculovirus BAC-V600E
Description: Determination of BRAF (V600E) kinase inhibitory activity. The test is classed as biochemical. Particulars: compound 1.0 μm; substrate GSTP1-MEK1 (K96R), [γ-32P]ATP. The procedure: Determination of BRAF (V600E) Kinase Inhibitory Activity
A test compound (2.5 μL) dissolved in dimethyl sulfoxide (DMSO) was added to 37.5 μL of a reaction solution (25 mM HEPES (pH 7.5), 10 mM magnesium acetate, 1 mM dithiothreitol) containing 30 ng of BRAF (V600E) enzyme and 250 ng of recombinant protein GSTP1-MEK1 (K96R) prepared using FreeStyle 293 expression system (Invitrogen), and the mixture was incubated at room temperature for 10 min. 10 μL of ATP solution (2.5 μM ATP, 0.1 μCi [γ-^32P]ATP) was added to the obtained mixture, and the mixture was reacted at room temperature for 20 min. The reaction was quenched by adding 50 μL of ice-cooled 20% trichloroacetic acid (Wako Pure Chemical Industries, Ltd.) to the reaction solution. The reaction solution was allowed to stand at 4° C. for 30 min., and the acid-precipitable fraction was transferred to GF/C filter plate (Millipore Corporation) using cell harvester (PerkinElmer). The plate was dried at 45° C. for 60 min., and 40 μL of MicroScinti 0 (PerkinElmer) was added thereto. The radioactivity was measured using TopCount (PerkinElmer). The kinase inhibitory rate (%) of the test compound was calculated by the following formula: Inhibitory rate (%)=(1−(count of test compound−blank)÷(control−blank))×100
The count of the solution reacted without addition of the compound was used as a “control”, and the count of the solution without the compound and enzyme was used as a “blank”.

Test [3] has as its system human colorectal cancer cell HT-29. As to the kind of experiment: Colorectal cancer cell HT-29 growth suppressive activity in vitro. The test is classed as cell-based. Particulars: 72 h, HT-29 cells, SRB staining; for IC50: 3 days culture; for inhibition at 5 µM: cell proliferation, compound 5.0 μM, 3 days, read-out: inhibitory rate (%) at 5.0 μM. The procedure: Colorectal Cancer Cell HT-29 Growth Suppressive Activity in Vitro
100 μL of a cell suspension (3,000 cells/well) of human colorectal cancer cell HT-29 (purchased from ATCC) was plated in a 96-well plate, and the cells were cultured at 37° C. in a 5% CO2 gas incubator. The next day, 100 μL of each test compound solution diluted in 2-fold serial dilution, diluted from maximum concentration 20 μM, was added, and the cells were cultured for 3 days. As for Example 44, 100 μl of each test compound solution (4-fold serially diluted, diluted from maximum concentration 20 μM) was added, and the cells were cultured for 3 days. The culture medium containing the test compound was removed, and the cells were washed with phosphate buffered saline (PBS). A 50% trichloroacetic acid solution was added to the final concentration of 10% (v/v), and the mixture was stood overnight at 4° C., whereby the cells were fixed to the plate. Then, a dye SRB 0.4% (w/v) solution (dissolved in 1% acetic acid) was added at 50 μl/well, whereby the cell protein was fixed and stained (Skehan et al., Journal Of National Cancer Institute, vol. 82, pp. 1107-1112, 1990). The cells were washed 3 times with 1% acetic acid solution (200 μL/well), and 100 μL of an extract (10 mM Tris buffer) was added to extract the dye. The absorbance at an absorption wavelength 550 nm was measured, and cell amount was measured as a protein amount. Taking the protein amount of the control group free of the test compound solution as 100%, the proportion of the residual protein amount of each treatment group was determined and the concentration of the compound necessary for suppressing the residual cell amount to 50% of the control (IC50 value) was calculated. The results are shown in Table 4-A. In addition, cell proliferation inhibitory rate (%) of the test compound at compound concentration 5.0 μM was calculated by the following formula. The results are shown in Table 4-B. Inhibitory rate (%)=(1−(absorbance of test compound−blank)÷(absorbance of control group−blank))×100
(In general: The SRB assay estimates cell density from bound dye.)

T1 sequence (P15056 457-717 V600E limits assumed): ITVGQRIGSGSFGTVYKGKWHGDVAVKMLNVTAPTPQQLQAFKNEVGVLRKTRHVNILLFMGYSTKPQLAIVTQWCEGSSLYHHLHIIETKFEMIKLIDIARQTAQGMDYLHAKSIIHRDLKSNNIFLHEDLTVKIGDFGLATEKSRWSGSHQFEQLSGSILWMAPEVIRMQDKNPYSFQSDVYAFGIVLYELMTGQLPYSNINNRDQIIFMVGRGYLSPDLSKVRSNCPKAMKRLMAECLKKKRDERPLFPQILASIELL

As for `O=C(Cc1cccc(C(F)(F)F)c1)Nc1cc(Oc2ccc3nc(NC(=O)C4CC4)sc3n2)ccc1F` [Example 22, N-{5-[4-fluoro-3-({[3-(trifluoromethyl)phenyl]acetyl}amino)phenoxy][1,3]thiazolo[5,4-b]pyridin-2-yl}cyclopropanecarboxamide], the inhibition at 0.5 µM in test [1] was 88%.

For `O=C(Cc1ccccc1C(F)(F)F)Nc1cc(Oc2ccc3nc(NC(=O)C4CC4)sc3n2)ccc1F` [Example 19, N-{5-[4-fluoro-3-({[2-(trifluoromethyl)phenyl]acetyl}amino)phenoxy][1,3]thiazolo[5,4-b]pyridin-2-yl}cyclopropanecarboxamide], the “inhibitory rate (%) at 1.0 μm” value in test [2] was found to be 100%.

As to `CN(c1ccc(F)c(NC(=O)Nc2ccc(C(F)(F)F)cc2)c1)c1ccc2nc(NC(=O)C3CC3)sc2n1` [Example 1, N-(5-{[4-fluoro-3-({[4-(trifluoromethyl)phenyl]carbamoyl}amino)phenyl](methyl)amino}[1,3]thiazolo[5,4-b]pyridin-2-yl)cyclopropanecarboxamide], in test [2], the “inhibitory rate (%) at 1.0 μm” value was 98%.

With `CN(c1cccc(NC(=O)Nc2ccc(OC(F)(F)F)cc2)c1)c1ccc2nc(NC(=O)C3CC3)sc2n1` [Example 9, N-(5-{methyl[3-({[4-(trifluoromethoxy)phenyl]carbamoyl}amino)phenyl]amino}[1,3]thiazolo[5,4-b]pyridin-2-yl)cyclopropanecarboxamide], in test [3], the 50% inhibitory concentration (IC50) was less than 500 nM and the inhibition at 5 µM turned out to be 100%.

For `CN(c1ccc(F)c(NC(=O)Nc2ccc(C(C)(C)C)cc2)c1)c1ccc2nc(NC(=O)C3CC3)sc2n1` [Example 3, N-{5-[(3-{[(4-tert-butylphenyl)carbamoyl]amino-}-4-fluorophenyl)(methyl)amino][1,3]thiazolo[5,4-b]pyridin-2-yl}cyclopropanecarboxamide], in test [1], the concentration for half-maximal inhibition (IC50) was less than 300 nM and the inhibition at 0.5 µM was 94%.

Consider `Cc1ccc(NC(=O)Cc2ccsc2)cc1Oc1ccc2nc(NC(=O)C3CC3)sc2n1` [Example 44, N-(5-{2-methyl-5-[(thiophen-3-ylacetyl)amino]-phenoxy} [1,3]thia-zolo[5,4-b]pyridin-2-yl)cyclo-propanecarboxamide], for which, in test [3], the IC50 is less than 500 nM and the inhibition at 5 µM came out at 98%.

For the compound `O=C(Cc1ccc(C(F)(F)F)cc1)Nc1cc(Oc2ccc3nc(NC(=O)C4CC4)sc3n2)ccc1F` [Example 21, N-{5-[4-fluoro-3-[{(4-(trifluoromethyl)phenyl]acetyl}amino)phenoxy][1,3]thiazolo[5,4-b]pyridin-2-yl}cyclopropanecarboxamide], the “inhibitory rate (%) at 1.0 μm” value in test [2] was 98%.

Take `O=C(Nc1cccc(C(F)(F)F)c1)Nc1cc(Oc2ccc3nc(NC(=O)C4CC4)sc3n2)ccc1F` [Example 23, N-{5-[4-fluoro-3-({[3-(trifluoromethyl)phenyl]carbamoyl}amino)phenoxy][1,3]thiazolo[5,4-b]pyridin-2-yl}cyclopropanecarboxamide]: in test [1], the IC50 was less than 300 nM and the inhibition at 0.5 µM amounted to 88%.

In the case of `O=C(Nc1ccc(Cl)c(C(F)(F)F)c1)Nc1cc(Nc2ccc3nc(NC(=O)C4CC4)sc3n2)ccc1F` [Example 13, N-(5-{[3-({[4-chloro-3-(trifluoromethyl)phenyl]carbamoyl}amino)-4-fluorophenyl]amino}[1,3]thiazolo[5,4-b]pyridin-2-yl)cyclopropanecarboxamide], in test [1], the IC50 is less than 300 nM and the inhibition at 0.5 µM was found to be 98%.

As for `CN(c1cccc(NC(=O)Nc2ccc(Cl)c(C(F)(F)F)c2)c1)c1ccc2nc(NC(=O)C3CC3)sc2n1` [Example 11, N-(5-{[3-({[4-chloro-3-(trifluoromethyl)phenyl]carbamoyl}amino)phenyl](methyl)amino}[1,3]thiazolo[5,4-b]pyridin-2-yl)cyclopropanecarboxamide], in test [2], the “inhibitory rate (%) at 1.0 μm” value was found to be 99%.

Regarding `O=C(Nc1ccc(C(F)(F)F)nc1)Nc1cc(Oc2ccc3nc(NC(=O)C4CC4)sc3n2)ccc1F` [Example 29, N-{5-[4-fluoro-3-({[6-(trifluoromethyl)pyridin-3-yl]carbamoyl}amino)phenoxy][1,3]thiazolo[5,4-b]pyridin-2-yl}cyclopropanecarboxamide], in test [3], the 50% inhibitory concentration (IC50) is less than 500 nM and the inhibition at 5 µM stood at 74%.
